The values below are quoted from earlier work in paper PMC2409936, “Phase I and pharmacokinetic study of XR11576, an oral topoisomerase I and II inhibitor, administered on days 1–5 of a 3-weekly cycle in patients with advanced solid tumours” (British Journal of Cancer, 2004).

For one series, the system named is patients. The following applies: oral administration; ref Soepenberg et al, 2002; Natelson et al, 1996; Verschraegen et al, 1998; Creemers et al, 1997; Gerrits et al; Mani et al; De Jonge et al, 1999; cited from earlier work.
Regarding `CC[C@@]1(O)C(=O)OCc2c1cc1n(c2=O)Cc2cc3c(CN(C)C)c(O)ccc3nc2-1` [topotecan], the “diarrhoea, share of administered cycles” value is reported as 24–54%.

Take `CC[C@@]1(O)C(=O)OCc2c1cc1n(c2=O)Cc2cc3ccccc3nc2-1` [20-S-camptothecin]: the “diarrhoea, share of administered cycles” value is on record as 24–54%.

On to `CCc1c2c(nc3ccc(OC(=O)N4CCC(N5CCCCC5)CC4)cc13)-c1cc3c(c(=O)n1C2)COC(=O)[C@]3(O)CC` [irinotecan], for which the “diarrhoea, share of administered cycles” value was 24–54%.

In the case of `CC[C@@]1(O)C(=O)OCc2c1cc1n(c2=O)Cc2cc3c(N)cccc3nc2-1` [9-AC], the “diarrhoea, share of administered cycles” value is 24–54%.

Consider `CC[C@@]1(O)C(=O)OCc2c1cc1n(c2=O)Cc2cc3c([N+](=O)[O-])cccc3nc2-1` [9-nitrocamptothecin], for which the “diarrhoea, share of administered cycles” value is 24–54%.

The same series, now with this note: prolonged oral administration (21 days), not controlled with loperamide; ref Creemers et al, 1997; cited from earlier work.
In the case of `CC[C@@]1(O)C(=O)OCc2c1cc1n(c2=O)Cc2cc3c(CN(C)C)c(O)ccc3nc2-1` [topotecan], the severe diarrhoea was 22%.
